Source: patent US20210283198A1, “METHOD FOR TREATING AND/OR PREVENTING COCCIDIOSIS” (priority 2020, published 2021)
Marks after values point to notes of the source that are not given here. *1 amine or outer side, *2 acyl side, *3 side chain or, on linkers, in order; H or OH if unused. Where a SMILES comes first, the peptide text is derived from it. Bridges are numbered along the chain shown (N, C = ends). [ ]: non-standard residue; d: D form. X1 = CC(C)CCCCCCCCC[C@H](CC(=O)[*:1])O[*:2]

Columns and labels:
[1] = test system: Eimeria tenella sporozoites; assay: Scanning electron microscopy of sporozoite morphology; assay type: cell-based; conditions: 5, 10, 20 ppm; 1 h at 37° C.; 10^6 sporozoites/mL; compared with untreated group
[2] = test system: Eimeria tenella merozoites; assay: In vitro death of merozoite (propidium iodide staining, confocal microscopy); assay type: cell-based; conditions: 100 ppm; 10^4/mL merozoites; 1 h at 37° C.; mean ± SD (n = 3)
P. falciparum = conditions: literature (Chakrabarty et al. 2008); cited from earlier work

CC(C)CCCCCCCCC[C@@H]1CC(=O)N[C@@H](CCC(=O)O)C(=O)N[C@@H](CC(C)C)C(=O)N[C@H](CC(C)C)C(=O)N[C@@H](C(C)C)C(=O)N[C@@H](CC(=O)O)C(=O)N[C@H](CC(C)C)C(=O)N[C@@H](CC(C)C)C(=O)O1 [surfactin standard, surfactin] (EL[dL]VD[dL]L; linker N-C via X1)
Morphology of Eimeria tenella sporozoites (scanning electron microscopy) [1]: disrupt the morphology
Death of merozoite (%) [2]: 97 ± 0.01^b %
Intraerythrocytic growth of P. falciparum (P. falciparum): potent inhibitor of intraerythrocytic growth
